Data on 7 compounds can be found in patent publication EP2759295A1, “Foam cell specific Liver X Receptor (LXR) alpha agonist, SIRT1 inhibitors as well as p300 inhibitors as pharmaceutically active agents” (Max-Planck-Gesellschaft zur Förderung der Wissenschaften …, priority 2013, dated 2014).

The structures appear in SMILES notation. Where two headings read alike, the source gives them in different places.

In one test the target is T1, SIRT1 (Homo sapiens, UniProt Q96EB6).
T1 construct: purchased Biomol International, Inc. / Enzo Life Sciences / BlueSky BioTech
T1 sequence (Q96EB6 1-747): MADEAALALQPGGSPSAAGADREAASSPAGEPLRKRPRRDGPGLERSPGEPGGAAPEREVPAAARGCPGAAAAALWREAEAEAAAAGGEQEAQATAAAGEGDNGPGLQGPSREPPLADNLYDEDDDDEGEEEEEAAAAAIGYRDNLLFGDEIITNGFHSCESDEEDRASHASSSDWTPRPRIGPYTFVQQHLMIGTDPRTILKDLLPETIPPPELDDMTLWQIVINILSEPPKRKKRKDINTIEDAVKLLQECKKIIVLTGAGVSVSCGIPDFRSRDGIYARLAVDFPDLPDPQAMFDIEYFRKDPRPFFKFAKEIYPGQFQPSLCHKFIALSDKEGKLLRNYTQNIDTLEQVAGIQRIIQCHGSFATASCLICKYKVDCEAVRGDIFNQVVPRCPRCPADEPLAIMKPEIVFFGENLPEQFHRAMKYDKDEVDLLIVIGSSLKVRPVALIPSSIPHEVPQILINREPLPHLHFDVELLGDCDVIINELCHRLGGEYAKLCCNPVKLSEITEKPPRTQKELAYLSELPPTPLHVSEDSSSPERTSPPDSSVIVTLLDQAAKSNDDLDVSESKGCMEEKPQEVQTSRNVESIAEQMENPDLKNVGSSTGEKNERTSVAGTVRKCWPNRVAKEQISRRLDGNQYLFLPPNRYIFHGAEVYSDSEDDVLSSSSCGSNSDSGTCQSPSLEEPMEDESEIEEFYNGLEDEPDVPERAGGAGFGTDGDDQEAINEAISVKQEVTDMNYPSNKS
The test is described as follows: MALDI-TOF MS deacetylation assay. The test is classed as biochemical. Here is the method:
The assay was performed in a 20 µL reaction. 0.5 µM acetylated peptide and 120 µM NAD^+ in reaction buffer (50 mM Tris-acetate (pH 8), 137 mM NaCl, 2.7 mM KCI, 1 mM MgCl2, 5 mM DTT, 0.05 % BSA) were mixed with compound or DMSO (VC). Reactions were initiated by adding 10 nM of SIRT1. After incubation for 30 min at 37°C, reactions were stopped by formic acid and nicotinamide (f.c. 1% and 5 mM, respectively). Reactions were performed with histone H4 peptide and 1% DMSO unless stated otherwise. […]
(§1) Acetylated and deacetylated peptides were mixed at different ratios in the respective buffer including stop solution and reaction components except the enzyme. Purification, preparation and MS detection were conducted in parallel to reaction samples. CCs were generated for IC50 value determination but not for the screening.
(§2) Peptides were purified by Oasis HLB µElution Plates using a vacuum manifold [S. Sauer et al. J Chromatogr A (2004), 1049, 9-16]. Plate columns were conditioned by 70% ACN and equilibrated with 0.1% TFA. Samples were loaded, desalted by 0.1 % TFA and H2O and eluted in 70% ACN.
(§3) For ultra thin layer (UTL), supernatant of saturated CHCA in ACN / H2O (2:1) and 0.1% TFA. was mixed with isopropanol (1:3) and was spread on a ground steel target. After solvent evaporated excess of CHCA was removed from target surface with a tissue [D. Fenyo et al. J Vis Exp (2007), 192]. The matrix used for sample preparation contained saturated CHCA in ACN / 0.1% TFA (1:2) or ACN / H2O (1:2) depending on peptide size [S. L. Cohen et al. Anal Chem (1996), 68, 31-37]. HLB eluted samples and matrix were mixed (1:4) and spotted on the UTL.
(§4) Samples were measured automatically (AutoXecute software, Bruker Daltonik GmbH) using an ultraflex II MALDI-TOF mass spectrometer (Bruker Daltonik GmbH) in positive ion reflector mode. Laser power and detector gain were adjusted prior to every automatic run, which were performed in random walk movement.
(§5) For assay optimization and IC50 determination, 1000 shots were accumulated in 100 satisfactory shot steps (fuzzy control). At least one peak within a defined mass range had to fulfill the following criteria for the spectra to be accumulated: Absolute (min.) intensity: 800; S/N: 15; peak width: 0.2.
(§6) A script (Bruker Daltonik GmbH) was employed to analyze peptide peaks in a batch process (flexAnalysis software, Version 3.0, Bruker Daltonik GmbH). Percentage of de-/acetylation were calculated using the sum of the first four monoisotopic peak intensities. CC was generated by plotting experimental vs. calculated peptide acetylation. Measured sample values were interpolated with CC to determine de-/acetylation values (GraphPad Prism). When no CC was created, peak intensity ratios were generated. Verified single NP screening hits had to pass a peak ratio of ≤ 0.1 (deac/ac).
(§7) As IC50 values were not gained at initial velocity conditions, values were corrected by a conversion factor according to Wu et al. (Table 5) [G. Wu et al. J Biomol Screen (2003), 8, 694-700].

Test [1] addresses T2, LXRα ligand binding domain (LBD) (Homo sapiens, UniProt Q13133).
T2 construct: expressed in transfected cells; host or cells: HEK-293
T2 sequence (Q13133 164-447): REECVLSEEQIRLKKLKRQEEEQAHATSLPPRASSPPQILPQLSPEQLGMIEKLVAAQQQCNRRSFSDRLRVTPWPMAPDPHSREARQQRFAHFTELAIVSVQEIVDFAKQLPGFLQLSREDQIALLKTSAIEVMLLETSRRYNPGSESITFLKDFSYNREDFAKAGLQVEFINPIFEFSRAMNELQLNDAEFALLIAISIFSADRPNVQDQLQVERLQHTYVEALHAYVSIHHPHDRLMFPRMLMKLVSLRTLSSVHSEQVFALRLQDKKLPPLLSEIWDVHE
Put plainly: dual luciferase reporter gene assay with LXRα ligand binding domain in HEK-293 cells. The following applies: +DMSO. The test is classed as cell-based. Here is the method:
The ligand binding domain (LBD) of LXRα (amino acids 164 to 447) or LXRβ (amino acids 154 to 461) was cloned into pBIND [Renilla/Amp] vector (Promega). Selection and amplification were performed in E-coli cells. Purification of the plasmids was performed with a plasmid purification kit (Qiagen). For transfection HEK-293 cells were plated in 96-well plates (TPP) at a density of 3.5 x 10^4 cells/well for 24 h. To investigate the ligand binding on LXRα ligand binding domain, 0.04 ng of renilla luciferase coding plasmide pGL4.75 (Promega), 0.04 ng of LXRα-LBD/GAL4-DBD plasmide and 80 ng of firefly luciferase coding plasmide pGL4.31 (Promega) were used in a total volume of 200 µL for each well. In LXRβ binding assay 40 ng of LXRβ-LBD/GAL4-DBD plasmide were applied in each transfection mix. Transfection was carried out for 4 h with Lipofectamine 2000 Transfection Reagent (Invitrogen) in Opti-MEM medium (Invitrogen). Ligand treatment was performed at different concentrations for 24 h. For lysis and detection dual-luciferase reporter gene assay system (Promega) and POLARstar Omega (BMG LABTECH) were used.
For orientation: Reporter assays use an easily measured gene product as a stand-in for the process of interest.

Test [2] addresses T3, p300 (Homo sapiens, UniProt Q09472).
T3 construct: purchased Biomol International, Inc. / Enzo Life Sciences
The test is described as follows: MALDI-TOF MS acetylation assay. The test is classed as biochemical. Here is the method:
Reactions were started by adding 0.5 µM HAT peptide and 120 µM AcCoA and incubated for 60 min at 30°C. After incubation at 30°C for up to 60 min, reactions were stopped by formic acid (f.c. 2%). Reaction buffer consisted of 50 mM HEPES (pH 7.9), 0.1 mM EDTA and 50 µg/mL BSA.
as §1, §2, §3, §4, §5, §6, §7

The target of test [3] is T3, p300. Put plainly: radioactivity based assay (Reaction Biology Corp.). The test is classed as biochemical. The source says:
IC50 for NP 9 was also validated by a radioactivity based assay, and performed by Reaction Biology Corp. (RBC).

The subject of the next test is THP-1 cells. The test is described as follows: TNFalpha ELISA in LPS-treated THP-1 cells. The following applies: 10 µM, LPS for 5 hours. The test is classed as cell-based, human. Here is the method: THP-1 cells were seeded in a 24-well plate (1.2 x 10^6 cells/well) in a volume of 0.4 mL. Cells were treated with 10 µM NP 9 or DMSO (VC). After 1 h, 10 ng/mL LPS (Sigma, cat.no. L5293) were added and incubated for another 5 h. Medium was separated from the cells by centrifugation and used for detection of TNFalpha release by a human TNF alpha ELISA Kit [V. M. Nayagam et al. J Biomol Screen (2006), 11, 959-967].

Test [4] addresses T3, p300. The following applies: literature (Balasubramanyam et al.); cited from earlier work.
The mark [5] stands for this setting: Table 3, corrected values (see Table 5), read-out: IC50 values.
Setting [6] is: corrected by conversion factor according to Wu et al., read-out: Corrected IC50.
Where [7] appears, read: uncorrected, not at initial velocity conditions, read-out: Obtained IC50'.

T3 sequence (Q09472 whole entry, species assumed): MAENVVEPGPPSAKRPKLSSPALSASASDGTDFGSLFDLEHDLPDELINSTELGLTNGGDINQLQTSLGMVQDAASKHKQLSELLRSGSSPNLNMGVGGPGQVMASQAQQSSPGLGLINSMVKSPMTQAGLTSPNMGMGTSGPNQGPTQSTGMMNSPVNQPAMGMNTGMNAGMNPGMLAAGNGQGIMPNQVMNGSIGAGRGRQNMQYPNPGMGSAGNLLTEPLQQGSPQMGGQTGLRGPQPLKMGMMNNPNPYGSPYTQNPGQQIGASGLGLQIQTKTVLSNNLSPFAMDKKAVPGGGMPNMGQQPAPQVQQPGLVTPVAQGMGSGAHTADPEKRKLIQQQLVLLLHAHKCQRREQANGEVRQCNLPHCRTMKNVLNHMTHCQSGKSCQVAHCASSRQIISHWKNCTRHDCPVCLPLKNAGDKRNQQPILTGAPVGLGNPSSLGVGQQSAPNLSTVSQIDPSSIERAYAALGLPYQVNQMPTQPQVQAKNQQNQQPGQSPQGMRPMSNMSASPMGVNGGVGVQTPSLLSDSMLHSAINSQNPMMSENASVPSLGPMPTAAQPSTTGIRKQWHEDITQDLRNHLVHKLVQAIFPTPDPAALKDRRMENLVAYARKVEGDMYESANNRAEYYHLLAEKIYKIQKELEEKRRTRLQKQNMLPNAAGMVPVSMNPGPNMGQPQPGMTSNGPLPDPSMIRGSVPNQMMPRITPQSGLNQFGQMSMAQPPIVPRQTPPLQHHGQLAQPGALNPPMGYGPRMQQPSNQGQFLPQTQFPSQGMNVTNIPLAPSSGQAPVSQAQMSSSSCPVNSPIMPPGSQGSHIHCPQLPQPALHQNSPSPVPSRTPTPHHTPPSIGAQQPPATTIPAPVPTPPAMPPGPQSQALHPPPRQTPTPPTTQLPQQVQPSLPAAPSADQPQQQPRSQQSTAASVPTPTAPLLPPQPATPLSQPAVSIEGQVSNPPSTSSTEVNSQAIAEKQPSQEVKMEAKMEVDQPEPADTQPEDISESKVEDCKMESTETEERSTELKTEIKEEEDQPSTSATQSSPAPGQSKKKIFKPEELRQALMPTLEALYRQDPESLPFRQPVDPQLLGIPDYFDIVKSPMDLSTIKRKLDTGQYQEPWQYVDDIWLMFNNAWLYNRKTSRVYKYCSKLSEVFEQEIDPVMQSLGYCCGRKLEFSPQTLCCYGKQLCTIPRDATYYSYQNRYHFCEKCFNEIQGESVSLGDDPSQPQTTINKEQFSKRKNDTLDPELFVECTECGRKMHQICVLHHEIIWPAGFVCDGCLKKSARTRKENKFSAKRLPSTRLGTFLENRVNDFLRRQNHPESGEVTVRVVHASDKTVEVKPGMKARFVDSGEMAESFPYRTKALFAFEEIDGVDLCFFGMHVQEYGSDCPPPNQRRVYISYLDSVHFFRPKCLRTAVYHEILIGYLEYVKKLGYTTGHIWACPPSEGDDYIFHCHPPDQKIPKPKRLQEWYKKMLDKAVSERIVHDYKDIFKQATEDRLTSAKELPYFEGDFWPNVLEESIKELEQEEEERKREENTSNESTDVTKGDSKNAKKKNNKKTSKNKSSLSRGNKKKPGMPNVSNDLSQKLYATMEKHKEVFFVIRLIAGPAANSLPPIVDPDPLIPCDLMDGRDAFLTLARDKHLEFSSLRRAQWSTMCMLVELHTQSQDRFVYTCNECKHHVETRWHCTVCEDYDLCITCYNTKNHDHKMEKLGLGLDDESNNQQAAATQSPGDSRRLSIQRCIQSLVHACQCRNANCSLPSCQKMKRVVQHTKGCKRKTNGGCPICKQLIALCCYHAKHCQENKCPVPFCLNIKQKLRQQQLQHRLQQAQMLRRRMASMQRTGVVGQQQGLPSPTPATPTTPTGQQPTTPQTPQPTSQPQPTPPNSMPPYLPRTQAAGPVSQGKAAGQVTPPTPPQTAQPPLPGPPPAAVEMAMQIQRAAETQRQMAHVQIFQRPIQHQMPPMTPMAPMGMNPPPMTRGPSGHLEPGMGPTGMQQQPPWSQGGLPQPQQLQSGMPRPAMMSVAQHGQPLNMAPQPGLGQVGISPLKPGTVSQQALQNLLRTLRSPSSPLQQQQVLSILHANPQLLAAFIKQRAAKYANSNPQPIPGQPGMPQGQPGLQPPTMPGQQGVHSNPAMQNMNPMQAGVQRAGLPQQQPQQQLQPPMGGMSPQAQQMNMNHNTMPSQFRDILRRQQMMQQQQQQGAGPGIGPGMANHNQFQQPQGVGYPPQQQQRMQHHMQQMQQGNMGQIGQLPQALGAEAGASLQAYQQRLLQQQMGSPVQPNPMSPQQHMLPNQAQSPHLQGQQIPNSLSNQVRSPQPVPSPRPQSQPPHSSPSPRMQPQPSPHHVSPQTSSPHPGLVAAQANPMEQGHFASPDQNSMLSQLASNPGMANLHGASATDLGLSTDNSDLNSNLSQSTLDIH

What is called IC50 is the concentration that gives 50% inhibition. Regarding `COC1C(OC(N)=O)C(O)C(Oc2ccc(-c3coc4cc(O)cc(O)c4c3=O)cc2)OC1(C)C` (stereo not shown) [NP 5, 6-(4-(5,7-dihydroxy-4-oxo-4H-chromen-3-yl)phenoxy)-5-hydroxy-3-methoxy-2,2-dimethyl-tetrahydro-2H-pyran-4-yl carbamate], the results for the IC50 at SIRT1 (setting [5]), at SIRT1 (setting [6]) and at SIRT1 (setting [7]) were 49 ± 3 µM, 49 ± 3 µM and 68 ± 4 µM, respectively.

Consider `COc1c(-c2c(O)cc(O)c3c(=O)cc(-c4ccc(O)cc4)oc23)c(O)cc2oc(-c3ccc(O)cc3)cc(=O)c12` [NP 2, 5',7,7'-trihydroxy-2,2'-bis(4-hydroxyphenyl)-5-methoxy-6,8'-bi(4H-chromene)-4,4'-dione], for which the half-maximal inhibitory concentration (IC50) on SIRT1 (setting [5]) came to 28 ± 9 µM; on SIRT1 (setting [6]), 28 ± 9 µM; at SIRT1 (setting [7]) it was 39 ± 13 µM.

A word on the EC50: it is the midpoint of the concentration-response curve. `CC(C)CC[C@@H](O)[C@@H](C)[C@H]1CC[C@H]2[C@@H]3CC=C4C[C@@H](O)CC[C@]4(C)[C@H]3CC[C@]12C` [22R, 22(R)-hydroxycholesterol] returned a half-maximal effective concentration (EC50) in test [1] (LXRα reporter gene activation) of 13.3 µM. This compound also displayed an Efficacy in test [1] (reporter gene transcription vs. T09) of 4%.

On to `O=C1CC(c2ccccc2)Oc2c(Cc3cccc(O)c3O)c(O)c(Cc3cccc(O)c3O)c(O)c21` (stereo not shown) [NP 4, 6,8-bis(2,3-dihydroxybenzyl)-5,7-dihydroxy-2-phenylchroman-4-one], for which the figures for the 50% inhibitory concentration (IC50) on SIRT1 (setting [5]), on SIRT1 (setting [6]) and at SIRT1 (setting [7]) were 46 ± 4 µM, 46 ± 4 µM and 63 ± 5 µM, respectively.

In the case of `O=c1cc(-c2ccc(O)c(-c3c(O)cc(O)c4c(=O)cc(-c5ccc(O)cc5)oc34)c2)oc2cc(O)cc(O)c12` [NP 3, 8-(5-(5,7-dihydroxy-4-oxo-4H-chromen-2-yl)-2-hydroxyphenyl)-5,7-dihydroxy-2-(4-hydroxyphenyl)-4H-chromen-4-one], the IC50 amounted to 36 ± 6 µM on SIRT1 (setting [5]), 36 ± 6 µM at SIRT1 (setting [6]) and 50 ± 8 µM at SIRT1 (setting [7]).

`CC(C)=CCc1c(O)cc(O)c2c(=O)c(O)c(-c3ccc(O)c(O)c3)oc12` [NP 9, 2-(3,4-dihydroxyphenyl)-3,5,7-trihydroxy-8-(3-methylbut-2-enyl)-4H-chromen-4-one]: the IC50 on p300 [2] (MALDI MS assay, read-out: IC50 value) was found to be 1.71 µM; at p300 [2] (setting [6]), 1.71 ± 0.07 µM; at p300 [2] (setting [7]), 2.35 ± 0.09 µM; at p300 [3], 2.1 µM. Also, the “times stronger than anacardic acid” value on p300 [2] (p300 IC50 comparison) is listed as “about 4 times”. Also, the “times stronger than garcinol” value at p300 [2] (p300 IC50 comparison) is reported as “about 3.5 times”. For the same compound, the “levels of TNFα secreted” value with THP-1 cells is “significant anti-inflammatory effects by reducing the levels of TNFα”.

As for `CCCCCCCCCCCCCCCc1cccc(O)c1C(=O)O` [anacardic acid], the IC50 on p300 [4] is 8.5 µM.
